What was measured:
Pseudomonas aeruginosa = test: Antibacterial activity against Pseudomonas aeruginosa at 200 ug/100uL after 24 hrs by agar well diffusion method; assay type: functional
Staphylococcus aureus = test: Antibacterial activity against Staphylococcus aureus at 200 ug/100uL after 24 hrs by agar well diffusion method; assay type: functional
Klebsiella pneumoniae = test: Antibacterial activity against Klebsiella pneumoniae at 200 ug/100uL after 24 hrs by agar well diffusion method; assay type: functional
Shigella boydii = test: Antibacterial activity against Shigella boydii at 200 ug/100uL after 24 hrs by agar well diffusion method; assay type: functional
Streptococcus pyogenes = test: Antibacterial activity against Streptococcus pyogenes at 200 ug/100uL after 24 hrs by agar well diffusion method; assay type: functional
Salmonella typhi = test: Antibacterial activity against Salmonella typhi at 200 ug/100uL after 24 hrs by agar well diffusion method; assay type: functional, Salmonella enterica subsp. enterica serovar Typhi
Proteus mirabilis = test: Antibacterial activity against Proteus mirabilis after at 200 ug/100uL 24 hrs by agar well diffusion method; assay type: functional

SMILES | inhibition zone (IZ) (Pseudomonas aeruginosa) [mm] | inhibition zone (IZ) (Staphylococcus aureus) [mm] | inhibition zone (IZ) (Klebsiella pneumoniae) [mm] | inhibition zone (IZ) (Shigella boydii) [mm] | inhibition zone (IZ) (Streptococcus pyogenes) [mm] | inhibition zone (IZ) (Salmonella typhi) [mm] | inhibition zone (IZ) (Proteus mirabilis) [mm]
C[C@@H]([C@H]1CC[C@H]2[C@@H]3CC[C@H]4C[C@@H](N(C)C(=O)CCc5ccccc5)CC[C@]4(C)[C@H]3CC[C@]12C)N(C)C | 7.5 | 11 | 10.5 |  |  |  | 
C[C@@H]([C@H]1CC[C@H]2[C@@H]3CC[C@H]4C[C@@H](N(C)CCCc5ccccc5)CC[C@]4(C)[C@H]3CC[C@]12C)N(C)C | 5.5 |  |  |  |  |  | 
C[C@@H]([C@H]1CC[C@H]2[C@@H]3CC[C@H]4C[C@@H](N(C)C(=O)c5ccccc5)CC[C@]4(C)[C@H]3CC[C@]12C)N(C)C | 6 | 12 | 8 | 6 | 6 | 6 | 8
C[C@@H]([C@H]1CC[C@H]2[C@@H]3CC[C@H]4C[C@@H](N(C)Cc5ccccc5)CC[C@]4(C)[C@H]3CC[C@]12C)N(C)C | 5.5 | 9 | 6 |  |  |  | 
CC1(C)S[C@@H]2[C@H](NC(=O)[C@H](N)c3ccc(O)cc3)C(=O)N2[C@H]1C(=O)O [AMOXICILLIN] | 15 | 16 | 17 | 17 | 16 | 12 | 16
CC1(C)S[C@@H]2[C@H](NC(=O)[C@H](N)c3ccccc3)C(=O)N2[C@H]1C(=O)O [AMPICILLIN] | 15 | 18 | 17 | 17 | 17 | 12 | 17
C[C@@H]([C@H]1CC[C@H]2[C@@H]3CC[C@H]4C[C@@H](NC(=O)c5ccccc5)CC[C@]4(C)[C@H]3CC[C@]12C)N(C)C [EPIPACHYSAMINE D] |  | 7 |  |  |  |  | 
C[C@@H]([C@H]1CC[C@H]2[C@@H]3CC[C@H]4C[C@@H](N(C)C(=O)/C=C/c5ccccc5)CC[C@]4(C)[C@H]3CC[C@]12C)N(C)C [SALIGCINNAMIDE] | 6 | 12 | 9 | 6 | 8 | 6 | 7

Source: ChEMBL document CHEMBL1141744, “Antibacterial steroidal alkaloids from Sarcococca saligna” (1998)
